Key:
[1] = biological target: T1, SMO-G529S (Homo sapiens, UniProt Q99835, G529S); assay: GLI-luciferase reporter assay, vismodegib dose response; assay type: cell-based; conditions: C3H10T1/2 cells transfected with SMO-G529S compared with SMO-WT; FIG. 7
T1 construct: expressed in transfected cells; host or cells: C3H10T1/2 cells (ATCC), transient transfection with GeneJuice
Experimental: Six hours later, cells from one well were trypsinized and redistributed over four wells of a 12-well plate. After 16 hours the FBS content of the culture medium was reduced to 0.5% to induce formation of primary cilia, and small molecule Hh inhibitors were added at indicated concentrations. Firefly luciferase activity was determined 24 hours later with the Dual-Glo Luciferase Assay System (Promega) and read using a Wallac EnVision plate reader (Perkin Elmer). Values were divided by renilla luciferase activities to normalize for transfection efficiency. Individual experiments were carried out in duplicate or triplicate and repeated at least once. Dose response data were fit to a 4-parameter equation in GraphPad Prism: […]

[2] = tested on: metastatic basal cell carcinoma (mBCC); assay: Vismodegib treatment of metastatic basal cell carcinoma (mBCC) patients, overall response assessment; assay type: in vivo, human
Excerpt: Clinical responses to targeted therapies (e.g., cancer therapies) can be short-lived due to the acquisition of genetic alterations that confer drug resistance. Identification of resistance mechanisms will guide novel therapeutic strategies. Inappropriate Hh signaling is linked to several cancers, including basal cell carcinoma (BCC). Loss-of-function mutations in PTCH (˜90%) and activating mutations in SMO (˜10%) are the primary drivers in BCC. Clinical mechanisms of resistance to vismodegib (GDC-0449) were identified by assessing vismodegibsensitivity and mutation status of BCCs from patients using the FoundationOne™ next-generation sequencing (NGS) platform. FIG. 1 lists characteristics of the mBCC (metastatic basal cell carcinoma) patients treated with vismodegib.
Patient Treatment Histories
008: patient with metastatic basal cell carcinoma (mBCC). No prior surgery for BCC was reported. Prior systemic therapy for metastatic BCC included the following agent: anthracycline chemotherapy. Sites of metastases at the time of screening included soft tissue in the right hemi pelvis. Measurable lesions were identified on the skin/soft tissue next to the right OS ilium, next to the right femur and ventral surface of the OS sacrum. Non-measurable lesions were identified on the bone destruction region in OS ilium and OS sacrum. The patient received their first dose of 150 mg vismodegib Study Day 1.
001: patient with metastatic basal cell carcinoma (mBCC). Prior surgery for BCC included 6 skin neoplasm excisions. No prior topical or systemic therapy for BCC was reported. Sites of metastases at the time of screening included skin of head. Measurable lesions were identified on skin of head (lymph nodes [besides trachea and infracarinal]). The patient received their first dose of 150 mg vismodegib on Study Day 1.
002: patient with metastatic basal cell carcinoma (mBCC). Prior surgery for BCC included skin neoplasm excision. No prior topical or systemic therapy for BCC was reported. Sites of metastases at the time of screening (24 Jan. 2012) included bone. Measurable lesions were identified on lung (S 5 right side and S 10 left side), os sacrum, vertebral 9 rib, right femur, occipital, and lymph nodes (mediastenum, retrocaval). The patient received their first dose of 150 mg vismodegib on Study Day 1.
011: patient with metastatic basal cell carcinoma (mBCC). No prior surgery for BCC was reported. No prior topical or systemic therapy for BCC was reported. Sites of metastases at the time of screening included bone and lung. Measurable lesion was identified on the skin of trunk. The patient received their first dose of 150 mg vismodegib on Study Day 1.
005: patient with metastatic basal cell carcinoma (mBCC). Prior surgery for BCC included skin neoplasm excision. Prior radiation directed to head and neck (total dose: 50 Gy). No prior topical or systemic therapy for BCC was reported. Sites of metastasis at the time of screening included neck, sternum and left clavicle. Measurable lesions were identified on neck (supraclavicular region), lung (segment 10 and 3). Non-measurable lesion was identified on sternocleidomastoid muscle and bone (left clavicle and sternum). The patient received their first dose of 150 mg vismodegib on Study Day 1.

[3] = tested on: advanced BCC; conditions: cited from earlier work
[4] = biological target: SMO-D473H (Homo sapiens, UniProt Q99835, D473H); conditions: SMO-D473H mutation from relapsed metastatic MB tumor; cited from earlier work
Chain of SMO-D473H (Q99835 28-787 D473H): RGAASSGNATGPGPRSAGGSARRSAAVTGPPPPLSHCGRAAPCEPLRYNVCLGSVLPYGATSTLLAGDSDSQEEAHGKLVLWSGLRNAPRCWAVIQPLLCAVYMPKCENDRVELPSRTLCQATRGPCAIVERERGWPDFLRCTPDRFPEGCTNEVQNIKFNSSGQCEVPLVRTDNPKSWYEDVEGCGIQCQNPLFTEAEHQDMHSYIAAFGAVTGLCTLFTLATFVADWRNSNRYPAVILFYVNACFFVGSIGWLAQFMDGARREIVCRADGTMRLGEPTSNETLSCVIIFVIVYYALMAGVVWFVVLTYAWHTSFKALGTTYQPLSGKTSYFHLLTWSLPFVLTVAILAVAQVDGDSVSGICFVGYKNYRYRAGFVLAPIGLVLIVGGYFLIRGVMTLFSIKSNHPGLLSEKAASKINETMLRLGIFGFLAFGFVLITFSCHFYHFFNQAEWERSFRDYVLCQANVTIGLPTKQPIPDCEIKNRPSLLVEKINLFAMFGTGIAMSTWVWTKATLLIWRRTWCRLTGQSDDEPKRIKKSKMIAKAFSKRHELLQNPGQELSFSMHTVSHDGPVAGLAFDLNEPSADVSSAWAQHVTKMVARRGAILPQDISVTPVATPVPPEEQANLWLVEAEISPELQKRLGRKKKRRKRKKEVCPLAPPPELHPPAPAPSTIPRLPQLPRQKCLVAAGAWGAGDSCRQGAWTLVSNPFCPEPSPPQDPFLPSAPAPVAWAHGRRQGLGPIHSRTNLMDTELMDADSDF

[5] = tested on: medulloblastoma; conditions: one patient; initial response, then no durable response and relapse of the tumor (Rudin et al., 2009); cited from earlier work

T1 sequence (Q99835 28-787 G529S): as the sequence (Q99835 28-787 D473H) above, with H446D, G502S counted along it

CS(=O)(=O)c1ccc(C(=O)Nc2ccc(Cl)c(-c3ccccn3)c2)c(Cl)c1 [vismodegib]
sensitivity to vismodegib (Gli-luciferase reporter activity) [1]: reduced sensitivity
first PR on target lesions ([2]; patient 001, 150 mg vismodegib): 397 Study day
overall response assessment revealed disease progression ([2]; patient 001, 150 mg vismodegib): 516 Study Day
overall response assessment showed disease progression ([2]; patient 002, 150 mg vismodegib): 399 Study Day
first PR ([2]; patient 002, 150 mg vismodegib, cycle 7): 172 Study day
overall response assessment showed progressive disease ([2]; patient 005, 150 mg vismodegib): 336 Study Day
overall response assessment showed disease progression ([2]; patient 008, 150 mg vismodegib): 673 Study Day
overall response assessment revealed progressive disease ([2]; patient 011, 150 mg vismodegib): 310 Study Day
response during treatment ([2]; patient 011, 150 mg vismodegib, cycle 11, Study day 282): stable disease
clinical outcome of treated BCC patients ([3]; majority of BCC patients (Sekulic et al., 2012)): clinical benefit, including both complete and partial responses
advanced BCC patients developing resistance to vismodegib ([3]; within the first year of treatment, preliminary estimate (Chang and Oro, 2012)): up to 20%
drug binding in vitro [4]: abrogate drug binding
response to treatment [5]: dramatic response
